In PubChem BioAssay AID1963830 (Molecular Pharmacology Branch, DTP, NCI, 2024):
Values joined by “and” are separate entries in the source; they are usually repeats but may differ in a detail not shown here. Equal values may be shown once. Blank lines part the entries; values can stand above or below the compound they belong to.

System: 922993-354-T-J3-PDC complex spheroid viability
Assay: Anticancer human tumor 922993-354-T-J3-PDC patient-derived endometrial carcinoma cell line growth inhibition [POLQ]
Conditions: for viability, T/C: stronger effect = lower value
Description: Multicellular complex tumor spheroid response to Polymerase (POL) inhibitors (novobiocin, ART-558, RP6685) in combination with a variety of drugs and investigational agents in selected tumor cell lines
The POL inhibitors (novobiocin, ART-558, and RP6685) were evaluated both individually and in combination with standard of care and investigational anticancer small molecules within a complex spheroid model of solid tumors. . Complex spheroids include a stromal component modeled by human endothelial cells (HUVEC) and fibroblasts modeled by human mesenchymal stem cells (MSCs). The concentration ranges selected for each drug and investigational agent were based upon clinically achievable concentrations if the clinical Cmax of the agent was known.
Compounds. The drugs and investigational agents: novobiocin (NSC847541), ART-558 (NSC835418), RP-6685 (NSC848927), peposertib (NSC802822), ceralasertib (NSC780249), elimusertib (NSC800525), camonsertib (NSC841442), AZD-1390 (NSC803789), olaparib (NSC753686), talazoparib (NSC767125), rucaparib (NSC756644), sotorasib (NSC818433), MRTX-1133 (NSC836407), SN-38 (NSC673596), topotecan (NSC609699), epotoside (NSC141540), doxorubicin (NSC123127), gemcitabine (NSC613327), 5-fluorouracil (NSC19893), paclitaxel (NSC125973), vemurafenib (NSC761431), MSA-2 (NSC828583), SN-011 (NSC837082), adavosertib (NSC754352), prexasertib (NSC758257), carboplatin (NSC241240) and oxaliplatin (NSC266046), were obtained from the National Cancer Institute (NCI) Developmental Therapeutics Program Chemical Repository (21). The FDA-approved anticancer drug set is available from the Developmental Therapeutics Program at https://dtp.cancer.gov/organization/dscb/obtaining/. […] The stock solutions were prepared in dimethyl sulfoxide (DMSO, Sigma-Aldrich, St. Louis, MO, cat. D2650), except for the platinum compounds which were prepared in saline (Quality Biological, Gaithersburg, MD, cat. 114-055-101), at 800-fold the tested concentration and stored at -70 degrees C prior to their use. All drugs and investigational agents were tested over a range starting from a high concentration at or near the clinical Cmax and decreasing in half-log increments. If the clinical Cmax for an agent had not been determined, the highest concentration tested was 10 microM, except for SN-38, which was tested at a high concentration of 1 microM.
Cell Culture. All cells were maintained in an incubator at 37 degrees C and 5% CO2 with 95% humidity. The PDC lines were cultured according to standard operating procedures established by the NCI PDMR (https://pdmr.cancer.gov). Table 3 of the manuscript, lists the cell lines along with the number of the three cell types plated to form the mct-spheroids and media for tumor cell growth. After thawing, all PDC lines, except 997537-175-T-J1-PDC and 415267-285-R-J2-PDC, were cultured in Matrigel-coated flasks prepared with a working solution of 1X Ham's F-12 nutrient mix, without supplementation (Thermo Fisher Scientific, cat. 11765054), 100 U/mL penicillin-streptomycin (Thermo Fisher Scientific, cat. 15140122), and 2.5% Matrigel (Corning Inc., Corning, NY, cat. 354248) for the first three passages. The two PDC lines 997537-175-T-J1-PDC and 415267-285-R-J2-PDC were cultured on uncoated flasks. The 857933-349-R-J2-PDC line was cultured in 6C/Colon 1B media containing advanced DMEM/F-12 (Thermo Fisher Scientific, cat. 12634028), 10 mM HEPES (Thermo Fisher Scientific, cat. 15630080), 1X GlutaMAX supplement (Thermo Fisher Scientific, cat. 35050061), 0.1 mg/mL primocin (InvivoGen, San Diego, CA, cat. ant-pm-2), 10% defined fetal bovine serum, heat inactivated (HyClone Laboratories Inc., Logan, UT, cat. SH30070.03HI), 50% L-WRN conditioned media (ATCC, cat. CRL-3276), 1.25 mM N-Acetyl-L-cysteine (Sigma-Aldrich, cat. A9165), 10 mM nicotinamide (Sigma-Aldrich, cat. N0636), 1X B-27 supplement (Thermo Fisher Scientific, cat. 17504044), 1X N-2 supplement (Thermo Fisher Scientific, cat. […]

[1] = curve of first compound, second compound 0.0316 µM
[2] = curve of first compound, second compound 0.1 µM
[3] = curve of first compound, second compound 0.316 µM
[4] = curve of first compound, second compound 1 µM
[5] = curve of first compound, second compound 3.16 µM
[6] = curve of first compound, second compound 10 µM
[7] = second compound 0.0316 µM, first compound 0.0316 µM
[8] = second compound 0.0316 µM, first compound 0.1 µM
[9] = second compound 0.0316 µM, first compound 0.316 µM
[10] = second compound 0.0316 µM, first compound 1 µM
[11] = second compound 0.1 µM, first compound 0.0316 µM
[12] = second compound 0.1 µM, first compound 0.1 µM
[13] = second compound 0.1 µM, first compound 0.316 µM
[14] = second compound 0.1 µM, first compound 1 µM
[15] = second compound 0.316 µM, first compound 0.0316 µM
[16] = second compound 0.316 µM, first compound 0.1 µM
[17] = second compound 0.316 µM, first compound 0.316 µM
[18] = second compound 0.316 µM, first compound 1 µM
[19] = second compound 1 µM, first compound 0.0316 µM
[20] = second compound 1 µM, first compound 0.1 µM
[21] = second compound 1 µM, first compound 0.316 µM
[22] = second compound 1 µM, first compound 1 µM
[23] = second compound 3.16 µM, first compound 0.0316 µM
[24] = second compound 3.16 µM, first compound 0.1 µM
[25] = second compound 3.16 µM, first compound 0.316 µM
[26] = second compound 3.16 µM, first compound 1 µM
[27] = second compound 10 µM, first compound 0.0316 µM
[28] = second compound 10 µM, first compound 0.1 µM
[29] = second compound 10 µM, first compound 0.316 µM
[30] = second compound 10 µM, first compound 1 µM
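Also: spheroids exposed to the agents for one week.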
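For viability, T/C in this document: 100% = DMSO vehicle control wells.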

Compound: Nc1ccn(C2OC(CO)C(O)C2(F)F)c(=O)n1 (centres undefined)
viability, T/C (compound 0.0316 µM): 13.5% and 24% and 10.2% | viability, T/C (compound 0.1 µM): 9.54% and 19.8% and 10.8% | viability, T/C (compound 0.316 µM): 11.1% and 19.8% and 8.64% | viability, T/C (compound 1 µM): 12.2% and 17.1% and 9.88% | viability, T/C (compound 3.16 µM): 9.68% and 23.8% and 9.1% | viability, T/C (compound 10 µM): 8.4% and 22.9% and 7.7% | IC50 (curve of compound): < 0.0316 µM

Compound: CC1COCCN1c1cc(C2(S(C)(=N)=O)CC2)nc(-c2ccnc3[nH]ccc23)n1 (centres undefined)
viability, T/C (compound 0.0316 µM): 98.8% and 101% and 94% | viability, T/C (compound 0.1 µM): 94.9% and 100% and 90.1% | viability, T/C (compound 0.316 µM): 91.1% and 101% (2×) | viability, T/C (compound 1 µM): 97% and 102% and 99.8% | viability, T/C (compound 3.16 µM): 93.2% and 104% and 78.1% | viability, T/C (compound 10 µM): 46.8% and 92.4% and 45% | IC50 (curve of compound): 9.23 µM and > 10 µM and 8.4 µM

Compound: CC(C)n1c(=O)n(C)c2cnc3cc(F)c(-c4ccc(OCCCN5CCCCC5)nc4)cc3c21
viability, T/C (compound 0.0316 µM): 109% and 101% and 100% | viability, T/C (compound 0.1 µM): 103% and 94.2% and 94% | viability, T/C (compound 0.316 µM): 107% and 99.9% and 97.4% | viability, T/C (compound 1 µM): 99.4% and 95.3% and 105% | viability, T/C (compound 3.16 µM): 90% and 92.7% and 83.1% | viability, T/C (compound 10 µM): 63.3% and 83% and 68% | IC50 (curve of compound): > 10 µM

Compound: C=CCn1c(=O)c2cnc(Nc3ccc(N4CCN(C)CC4)cc3)nc2n1-c1cccc(C(C)(C)O)n1 + COC1C(OC(N)=O)C(O)C(Oc2ccc3c(O)c(NC(=O)c4ccc(O)c(CC=C(C)C)c4)c(=O)oc3c2C)OC1(C)C
IC50 [1]: > 1 µM | IC50 [2]: > 1 µM | IC50 [3]: > 1 µM | IC50 [4]: > 1 µM | IC50 [5]: > 1 µM | IC50 [6]: > 1 µM | viability, T/C (second compound 0.0316 µM, first compound 0.00316 µM): 91.7% | viability, T/C (second compound 0.0316 µM, first compound 0.01 µM): 105% | viability, T/C [7]: 97.4% | viability, T/C [8]: 101% | viability, T/C [9]: 118% | viability, T/C [10]: 94.9% | viability, T/C (second compound 0.1 µM, first compound 0.00316 µM): 94% | viability, T/C (second compound 0.1 µM, first compound 0.01 µM): 96.3% | viability, T/C [11]: 101% | viability, T/C [12]: 102% | viability, T/C [13]: 106% | viability, T/C [14]: 103% | viability, T/C (second compound 0.316 µM, first compound 0.00316 µM): 101% | viability, T/C (second compound 0.316 µM, first compound 0.01 µM): 104% | viability, T/C [15]: 85% | viability, T/C [16]: 95.4% | viability, T/C [17]: 102% | viability, T/C [18]: 84.9% | viability, T/C (second compound 1 µM, first compound 0.00316 µM): 108% | viability, T/C (second compound 1 µM, first compound 0.01 µM): 95.7% | viability, T/C [19]: 88.9% | viability, T/C [20]: 96.2% | viability, T/C [21]: 100% | viability, T/C [22]: 93.4% | viability, T/C (second compound 3.16 µM, first compound 0.00316 µM): 94.4% | viability, T/C (second compound 3.16 µM, first compound 0.01 µM): 97.7% | viability, T/C [23]: 101% | viability, T/C [24]: 91.1% | viability, T/C [25]: 102% | viability, T/C [26]: 91.3% | viability, T/C (second compound 10 µM, first compound 0.00316 µM): 94.6% | viability, T/C (second compound 10 µM, first compound 0.01 µM): 69.8% | viability, T/C [27]: 78% | viability, T/C [28]: 88.8% | viability, T/C [29]: 106% | viability, T/C [30]: 81.2%

IC50 (compound alone, run of 11/06/2023): > 10 µM
Compound: Nc1ccc(C#CCN(C(=O)Cc2ncc(C(F)(F)F)cc2C(F)(F)F)c2ccc(F)cc2)nn1
viability, T/C (compound 0.0316 µM): 103% [middle of 13 runs] | viability, T/C (compound 0.1 µM): 102% [middle of 12 runs] | viability, T/C (compound 0.316 µM): 102% [middle of 13 runs] | viability, T/C (compound 1 µM): 101% [middle of 13 runs] | viability, T/C (compound 3.16 µM): 101% [middle of 13 runs] | viability, T/C (compound 10 µM): 98% [middle of 13 runs]

Compound: CC1COCCN1c1cc(C2(O)CC3CCC(C2)O3)c2cnn(-c3ccn[nH]3)c2n1 (centres undefined) + Cc1cccc(N(C)C(=O)C2C(O)CCN2c2nc(C)cc(C(F)(F)F)c2C#N)c1
IC50 [1]: 0.439 µM | IC50 [2]: 0.457 µM | IC50 [3]: 0.58 µM | IC50 [4]: 0.51 µM | IC50 [5]: 0.39 µM | IC50 [6]: 0.166 µM | viability, T/C [7]: 104% | viability, T/C [8]: 77% | viability, T/C [9]: 61.6% | viability, T/C [10]: 33.6% | viability, T/C (second compound 0.0316 µM, first compound 3.16 µM): 10.6% | viability, T/C (second compound 0.0316 µM, first compound 10 µM): 8.67% | viability, T/C [11]: 109% | viability, T/C [12]: 93.7% | viability, T/C [13]: 63.9% | viability, T/C [14]: 23.2% | viability, T/C (second compound 0.1 µM, first compound 3.16 µM): 10.3% | viability, T/C (second compound 0.1 µM, first compound 10 µM): 10.8% | viability, T/C [15]: 110% | viability, T/C [16]: 101% | viability, T/C [17]: 75.5% | viability, T/C [18]: 27.5% | viability, T/C (second compound 0.316 µM, first compound 3.16 µM): 11.6% | viability, T/C (second compound 0.316 µM, first compound 10 µM): 10.9% | viability, T/C [19]: 97.3% | viability, T/C [20]: 89.5% | viability, T/C [21]: 67.9% | viability, T/C [22]: 25.8% | viability, T/C (second compound 1 µM, first compound 3.16 µM): 9.46% | viability, T/C (second compound 1 µM, first compound 10 µM): 10.4% | viability, T/C [23]: 101% | viability, T/C [24]: 89.2% | viability, T/C [25]: 57.1% | viability, T/C [26]: 20.7% | viability, T/C (second compound 3.16 µM, first compound 3.16 µM): 8.74% | viability, T/C (second compound 3.16 µM, first compound 10 µM): 9.75% | viability, T/C [27]: 101% | viability, T/C [28]: 64.6% | viability, T/C [29]: 32.5% | viability, T/C [30]: 10.3% | viability, T/C (second compound 10 µM, first compound 3.16 µM): 8.71% | viability, T/C (second compound 10 µM, first compound 10 µM): 9.69%

Compound: COc1cc(C2c3cc4c(cc3C(OC3OC5COC(C)OC5C(O)C3O)C3COC(=O)C23)OCO4)cc(OC)c1O (centres undefined)
viability, T/C (compound 0.0316 µM): 90.2% and 98.8% and 103% | viability, T/C (compound 0.1 µM): 95.9% and 102% and 93.7% | viability, T/C (compound 0.316 µM): 85.3% and 104% and 92.5% | viability, T/C (compound 1 µM): 97.9% and 104% and 97.5% | viability, T/C (compound 3.16 µM): 84.4% and 99.5% and 83.6% | viability, T/C (compound 10 µM): 42.3% and 81.9% and 37% | IC50 (curve of compound): 8.15 µM and > 10 µM and 7.3 µM
